Active and inactive are the calls of the source. No cut-off for these calls is given here.
Key:
[1] = biological target: Elastase (Pseudomonas aeruginosa (strain ATCC 15692 / PAO1 / 1C / PRS 101 / LMG12228)) (UniProt P14756); experiment: (§1) Antagonist activity at Pseudomonas aeruginosa LasB using Abz-Ala-Gly-Leu-Ala-p-Nitro-Benzyl-Amide as substrate incubated for 30 mins prior to substrate addition by FRET assay; format: functional
[2] = Metabolic stability in tryptic soy broth assessed as decomposition at 50 uM after 48 hrs; format: physicochemical
[3] = biological target: Elastase (Pseudomonas aeruginosa (strain ATCC 15692 / PAO1 / 1C / PRS 101 / LMG12228)) (UniProt P14756); experiment: Antagonist activity at Pseudomonas aeruginosa PA14 LasB assessed as inhibition of swarming at 25 uM after 16 hrs swarming motility assay relative to control; format: functional
Pseudomonas aeruginosa = experiment: Toxicity against Pseudomonas aeruginosa PA14 assessed as viability at 25 uM by spectrophotometry; format: organism-based; settings: read-out: Activity
[4] = Metabolic stability in tryptic soy broth assessed as S-oxidation at 50 uM after 48 hrs; format: physicochemical
Elastase = Elastase (Pseudomonas aeruginosa (strain ATCC 15692 / PAO1 / 1C / PRS 101 / LMG12228), UniProt P14756); experiment: as §1; format: functional
Chain of Elastase (P14756 whole entry): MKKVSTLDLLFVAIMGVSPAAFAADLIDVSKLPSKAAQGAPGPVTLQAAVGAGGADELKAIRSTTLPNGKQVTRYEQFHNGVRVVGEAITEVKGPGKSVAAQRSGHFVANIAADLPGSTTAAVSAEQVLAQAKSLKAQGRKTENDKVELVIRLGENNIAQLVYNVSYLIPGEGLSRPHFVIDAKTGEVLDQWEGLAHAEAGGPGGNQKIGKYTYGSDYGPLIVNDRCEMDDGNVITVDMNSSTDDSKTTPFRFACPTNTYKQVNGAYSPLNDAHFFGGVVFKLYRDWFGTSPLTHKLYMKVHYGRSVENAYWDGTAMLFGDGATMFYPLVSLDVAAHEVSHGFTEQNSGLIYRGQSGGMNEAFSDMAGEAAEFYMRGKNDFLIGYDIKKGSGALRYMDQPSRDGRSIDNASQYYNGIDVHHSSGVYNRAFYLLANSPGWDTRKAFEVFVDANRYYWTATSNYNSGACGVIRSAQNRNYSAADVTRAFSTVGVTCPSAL

Chain of Elastase (Pseudomonas aeruginosa (strain ATCC 15692 / PAO1 / 1C / PRS 101 / LMG12228)) (P14756 198-498 limits assumed): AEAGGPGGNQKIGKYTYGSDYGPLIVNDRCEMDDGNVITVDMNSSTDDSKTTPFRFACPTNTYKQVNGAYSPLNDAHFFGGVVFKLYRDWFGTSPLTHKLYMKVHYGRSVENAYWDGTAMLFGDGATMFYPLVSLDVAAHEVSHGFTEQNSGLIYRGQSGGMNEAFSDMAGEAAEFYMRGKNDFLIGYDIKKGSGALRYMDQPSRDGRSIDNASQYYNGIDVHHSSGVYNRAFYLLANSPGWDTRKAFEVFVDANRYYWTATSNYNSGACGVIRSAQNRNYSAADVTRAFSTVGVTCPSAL

| SMILES | Activity [1] | Stability [2] | Activity [3] | viability at 25 µM (Pseudomonas aeruginosa) [%] | Stability [4] | IC50 (Elastase) [µM] |
| --- | --- | --- | --- | --- | --- | --- |
| Cc1c(O)c(=S)ccn1C | Dose-dependent effect | – | – | – | – | – |
| CCc1c(O)c(=S)ccn1CC | Dose-dependent effect | – | – | – | – | – |
| Cc1c(O)c(=S)ccn1Cc1ccc(-c2ccc(F)c(F)c2)cc1 | – | Stable | Active | 95 | Stable | 3.34 |
| Cn1cccc(O)c1=S | Dose-dependent effect | – | – | – | – | 220 |
| O=C(Cc1ccccc1)NO [PHENYLACETOHYDROXAMIC ACID] | Dose-dependent effect | Unstable | inactive | – | Unstable | 13.6 |
| Cc1c(O)c(=S)ccn1Cc1ccc(-c2ccccc2)cc1 | – | Stable | Active | 95 | Stable | 2.73 |
| Cc1c(O)c(=S)ccn1Cc1ccc(-c2ccc(Cl)cc2)cc1 | – | – | – | – | – | 5.27 |
| Cc1ccc(-c2ccc(Cn3ccc(=S)c(O)c3C)cc2)cc1 | – | – | – | – | – | 6.72 |
| Cc1c(O)c(=S)ccn1Cc1ccc(-c2ccc(F)cc2)cc1 | – | – | – | – | – | 4.65 |
| Cc1c(O)c(=S)ccn1Cc1ccc(-c2ccc3c(c2)OCO3)cc1 | – | – | – | – | – | 3.58 |
| CCn1ccc(=S)c(O)c1C | Dose-dependent effect | – | – | – | – | 88.5 |
| O=C(Cc1cccc(F)c1)NO | Dose-dependent effect | Unstable | inactive | – | Unstable | 16.4 |
| COc1ccc(-c2ccc(Cn3ccc(=S)c(O)c3C)cc2)cc1 | – | – | – | – | – | 8.58 |

From ChEMBL document CHEMBL2146446, “3-Hydroxy-1-alkyl-2-methylpyridine-4(1H)-thiones: Inhibition of the Pseudomonas aeruginosa Virulence Factor LasB” (ACS Med Chem Lett, 2012)
